# According to patent publication US20100074932A1, “ANTIMICROBIAL COMPOSITIONS CONTAINING GALLIUM” (priority 2006, published 2010):
# Assays:
# [1] = on exposure of the coating to body fluid, based on relative solubilities in water
# Source text: The differences in the solubility of the different salts in the composition will result in different and prolonged rates of release of the oligodynamic gallium in the coating composition when a device coated with the composition is exposed to body fluid. The amount of water in the final coating solution is about 30% of the total solvent weight.
# Escherichia coli 6418 [2] = assay: Microbial colonization of hydrogel coated latex foley catheter surface, plate counting; type: cell-based; details: 0.2 mM gallium nitrate, 48 hours, compared to positive control with no gallium, FIG. 3
# Procedure: After 48 hours, catheter pieces were removed, microorganisms were recovered from the catheter surface and enumerated by plate counting methods.
# Escherichia coli 6418 [3] = assay: Biofilm formation on catheter after two hours pre-attachment of bacteria, plate counting; type: cell-based; details: 0.2 mM gallium nitrate, 48 hours, compared to positive control with no gallium, FIG. 4
SMILES,order of release from the coating composition [1],microbial colonization of the catheter surface (Escherichia coli 6418 [2]),biofilm formation (Escherichia coli 6418 [3])
CC(=O)[O-].CC(=O)[O-].CC(=O)[O-].[Ga+3] [gallium acetate],Then,,
[I][Ga]([I])[I] [gallium iodide],lastly,,
O=[N+]([O-])[O-].O=[N+]([O-])[O-].O=[N+]([O-])[O-].[Ga+3] [gallium nitrate],,reduced microbial colonization,reduced biofilm formation
